Results taken from paper PMC6720883, “In Vitro Inhibitory Effects of APINACA on Human Major Cytochrome P450, UDP-Glucuronosyltransferase Enzymes, and Drug Transporters” (Molecules, 2019).
Like-named read-outs stand apart in the source and are kept apart here.

Experiments:
OATP1B3 = OATP1B3 (Homo sapiens, UniProt Q9NPD5)
OATP1B1 = molecular target: T1, OATP1B1 (Homo sapiens, UniProt Q9Y6L6); assay: Uptake of [3-H]estrone-3-sulfate in HEK293-OATP1B1 cells; format: in vitro ADME; conditions: HEK293-OATP1B1 cells; 0.1 μM [3-H]estrone-3-sulfate; 5 min uptake
T1 construct: host or cells: HEK293 (transient overexpression)
T1 sequence (Q9Y6L6 1-691): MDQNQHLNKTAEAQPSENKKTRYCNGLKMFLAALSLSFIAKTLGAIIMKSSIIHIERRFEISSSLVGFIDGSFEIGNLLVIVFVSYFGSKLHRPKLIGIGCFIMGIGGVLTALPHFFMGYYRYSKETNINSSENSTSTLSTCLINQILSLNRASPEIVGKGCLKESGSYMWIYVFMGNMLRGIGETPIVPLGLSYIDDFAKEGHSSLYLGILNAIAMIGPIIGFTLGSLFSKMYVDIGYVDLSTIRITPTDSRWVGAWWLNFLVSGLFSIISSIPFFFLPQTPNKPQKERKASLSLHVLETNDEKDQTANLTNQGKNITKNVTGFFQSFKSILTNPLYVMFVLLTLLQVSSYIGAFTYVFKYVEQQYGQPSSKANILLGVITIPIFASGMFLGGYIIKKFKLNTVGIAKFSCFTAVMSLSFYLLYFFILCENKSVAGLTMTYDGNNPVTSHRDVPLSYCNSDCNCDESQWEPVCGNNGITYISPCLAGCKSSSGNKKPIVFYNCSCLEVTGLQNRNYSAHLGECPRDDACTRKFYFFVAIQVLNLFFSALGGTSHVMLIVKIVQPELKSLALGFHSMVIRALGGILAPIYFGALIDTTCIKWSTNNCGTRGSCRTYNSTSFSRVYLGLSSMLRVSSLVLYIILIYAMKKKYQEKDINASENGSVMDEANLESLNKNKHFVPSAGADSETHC
Procedure: To examine the effects of APINACA and typical inhibitors on transporter activity, the uptake of a probe substrate into HEK293 cells overexpressing the respective solute carrier transporters was measured in the presence of APINACA (final concentrations of 0–250 μM) or typical inhibitors for 5 min. The concentrations and probe substrates were selected as follows: 0.1 μM [3-H]MPP^+ (for OCT1 and OCT2), 0.1 μM [3-H]PAH (for OAT1), 0.1 μM [3-H]ES (for OAT3 and OATP1B1), and 0.1 μM [3-H]EG (for OATP1B3).
(§1) 12.5 (Systat Software, Inc.; San Jose, CA, USA). […] 1.1 (Systat Software, Inc.).

CYP3A4 [1] = molecular target: T2, CYP3A4 (Homo sapiens, UniProt P08684); conditions: cited from earlier work
CYP3A4 [2] = molecular target: T2, CYP3A4; parameters: method as in PMID 22490230; conditions: human liver microsomes; cited from earlier work
UGT1A9 [3] = molecular target: T3, UGT1A9 (Homo sapiens, UniProt O60656); assay: Inhibition of UGT1A9-catalyzed mycophenolic acid glucuronidation in human liver microsomes; format: in vitro ADME; parameters: […]; tissue Corning Life Sciences; conditions: pooled human liver microsomes; 0.2 µM mycophenolic acid; without preincubation (●); read-out: IC50 UGT1A9 mycophenolic acid glucuronidation, without preincubation
T3 sequence (O60656 26-530): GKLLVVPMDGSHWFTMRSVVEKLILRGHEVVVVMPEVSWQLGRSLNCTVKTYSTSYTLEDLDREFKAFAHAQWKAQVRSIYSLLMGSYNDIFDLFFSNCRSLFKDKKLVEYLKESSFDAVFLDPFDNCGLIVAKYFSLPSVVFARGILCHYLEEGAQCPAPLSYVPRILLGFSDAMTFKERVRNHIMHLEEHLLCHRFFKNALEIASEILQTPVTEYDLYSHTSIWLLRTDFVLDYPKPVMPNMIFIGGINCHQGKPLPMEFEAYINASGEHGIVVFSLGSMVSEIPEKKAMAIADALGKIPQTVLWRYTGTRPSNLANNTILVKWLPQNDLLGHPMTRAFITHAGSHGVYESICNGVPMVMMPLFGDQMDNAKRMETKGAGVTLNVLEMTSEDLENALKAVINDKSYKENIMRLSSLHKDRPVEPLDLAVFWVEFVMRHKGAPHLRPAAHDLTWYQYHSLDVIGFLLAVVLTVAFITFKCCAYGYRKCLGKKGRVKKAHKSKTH
From the text: as §1

UGT1A9 [4] = molecular target: T3, UGT1A9; parameters: […]; tissue Corning Life Sciences; method as in PMID 23230132; conditions: human liver microsomes; read-out: Ki for inhibition of UGT1A9-mediated ethanol glucuronidation; cited from earlier work
UGT1A1 = molecular target: T4, UGT1A1 (Homo sapiens, UniProt P22309); assay: biochemical; format: in vitro ADME
T4 construct: […]; tissue Corning Life Sciences
T4 sequence (P22309 26-533): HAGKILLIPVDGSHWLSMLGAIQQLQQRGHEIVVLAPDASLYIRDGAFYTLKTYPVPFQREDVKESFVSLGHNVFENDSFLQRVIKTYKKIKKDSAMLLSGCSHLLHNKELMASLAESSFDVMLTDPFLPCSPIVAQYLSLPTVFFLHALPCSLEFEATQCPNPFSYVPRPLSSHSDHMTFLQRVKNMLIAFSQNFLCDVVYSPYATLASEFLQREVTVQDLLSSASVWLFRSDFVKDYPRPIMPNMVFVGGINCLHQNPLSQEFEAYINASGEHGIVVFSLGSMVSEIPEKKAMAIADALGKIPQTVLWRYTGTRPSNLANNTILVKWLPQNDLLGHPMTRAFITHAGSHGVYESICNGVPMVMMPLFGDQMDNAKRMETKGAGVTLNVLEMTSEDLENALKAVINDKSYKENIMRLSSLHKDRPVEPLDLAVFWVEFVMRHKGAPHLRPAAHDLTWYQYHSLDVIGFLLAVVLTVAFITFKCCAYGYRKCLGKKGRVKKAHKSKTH
From the text: as §1

T2 sequence (P08684 2-503): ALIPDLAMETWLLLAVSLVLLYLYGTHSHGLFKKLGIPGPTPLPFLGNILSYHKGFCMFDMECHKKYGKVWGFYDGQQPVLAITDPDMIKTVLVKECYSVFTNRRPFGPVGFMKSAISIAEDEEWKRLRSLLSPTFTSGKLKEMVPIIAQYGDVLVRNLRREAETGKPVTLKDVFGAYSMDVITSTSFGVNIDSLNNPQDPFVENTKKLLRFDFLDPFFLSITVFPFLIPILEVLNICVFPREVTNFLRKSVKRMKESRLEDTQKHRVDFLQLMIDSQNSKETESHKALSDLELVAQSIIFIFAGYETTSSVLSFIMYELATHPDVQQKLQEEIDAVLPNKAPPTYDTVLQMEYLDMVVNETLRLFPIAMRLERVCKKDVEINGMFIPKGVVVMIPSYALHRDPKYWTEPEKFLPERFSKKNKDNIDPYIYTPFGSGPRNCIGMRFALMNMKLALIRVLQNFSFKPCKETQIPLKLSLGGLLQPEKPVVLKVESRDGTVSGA
OATP1B3, sequence (Q9NPD5 whole entry): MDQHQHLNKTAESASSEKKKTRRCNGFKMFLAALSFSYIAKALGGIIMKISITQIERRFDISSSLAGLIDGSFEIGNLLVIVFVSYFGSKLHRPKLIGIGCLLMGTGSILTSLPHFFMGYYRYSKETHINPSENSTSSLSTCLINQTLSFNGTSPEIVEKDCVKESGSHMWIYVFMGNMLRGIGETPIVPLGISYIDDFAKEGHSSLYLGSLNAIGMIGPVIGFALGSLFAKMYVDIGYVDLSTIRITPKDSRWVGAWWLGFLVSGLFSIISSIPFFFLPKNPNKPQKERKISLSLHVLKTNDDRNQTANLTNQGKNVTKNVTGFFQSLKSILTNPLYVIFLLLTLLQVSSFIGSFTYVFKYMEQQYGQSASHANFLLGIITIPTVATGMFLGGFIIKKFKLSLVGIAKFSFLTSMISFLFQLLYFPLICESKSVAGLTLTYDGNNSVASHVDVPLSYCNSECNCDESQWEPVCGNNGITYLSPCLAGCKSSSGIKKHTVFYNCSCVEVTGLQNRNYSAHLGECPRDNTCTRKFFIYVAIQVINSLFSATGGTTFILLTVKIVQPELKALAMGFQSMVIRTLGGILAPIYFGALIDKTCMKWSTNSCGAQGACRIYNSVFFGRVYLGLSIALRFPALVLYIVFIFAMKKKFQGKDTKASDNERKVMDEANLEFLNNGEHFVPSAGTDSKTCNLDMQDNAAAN

**Q.** With `CO[C@H]1/C=C/O[C@@]2(C)Oc3c(C)c(O)c4c(O)c(c(/C=N/N5CCN(C)CC5)c(O)c4c3C2=O)NC(=O)/C(C)=C\C=C\[C@H](C)[C@H](O)[C@@H](C)[C@@H](O)[C@@H](C)[C@H](OC(C)=O)[C@@H]1C` [Rifampin, reference compound] as the compound, how does the IC50 (OATP1B3) read?
**A.** 0.99 µM

**Q.** And the IC50 (OATP1B1)?
**A.** 22.8 µM

**Q.** For `Cc1ccc(C(=O)c2cn(CCCCCF)c3ccccc23)c2ccccc12` [MAM-2201], which Ki (CYP3A4 [1]; noncompetitive inhibition, read-out: Ki for noncompetitive inhibition of CYP3A4-catalyzed midazolam 1′-hydroxylation) is on record?
**A.** 5.4 µM

**Q.** Which “kinact for CYP3A4-catalyzed midazolam 1′-hydroxylation” value (CYP3A4 [1]; human liver microsomes) does the source give for `CCc1ccc(C(=O)c2cn(CCCCCF)c3ccccc23)c2ccccc12` [EAM-2201] here?
**A.** 0.0250 min⁻¹

**Q.** With `CC[C@H]1OC(=O)[C@H](C)[C@@H](O[C@H]2C[C@@](C)(OC)[C@@H](O)[C@H](C)O2)[C@H](C)[C@@H](O[C@@H]2O[C@H](C)C[C@H](N(C)C)[C@H]2O)[C@](C)(OC)C[C@@H](C)C(=O)[C@H](C)[C@@H](O)[C@]1(C)O` [clarithromycin] as the compound, how does the “inactivation efficiency (kinact/Ki) for time-dependent inhibition of CYP3A4” value (CYP3A4 [2]) read?
**A.** 46.7 M⁻¹ s⁻¹

**Q.** With `C=CCc1ccc(O)c(-c2cc(CC=C)ccc2O)c1` [magnolol, reference compound] as the compound, how does the IC50 (UGT1A9 [3]) read?
**A.** 9.7 µM

**Q.** For `C=C(C)[C@@H]1CCC(C)=C[C@H]1c1c(O)cc(CCCCC)cc1O` [cannabidiol], which Ki (UGT1A9 [4]) is on record?
**A.** 9.9 µM

**Q.** With `COC(=O)N[C@H](C(=O)N[C@@H](Cc1ccccc1)[C@@H](O)CN(Cc1ccc(-c2ccccn2)cc1)NC(=O)[C@@H](NC(=O)OC)C(C)(C)C)C(C)(C)C` [atazanavir, reference compound] as the compound, how does the IC50 (UGT1A1) read?
**A.** 0.7 µM

**Q.** Which Ki (CYP3A4 [1]; competitive inhibition, read-out: Ki for competitive inhibition of CYP3A4-catalyzed midazolam 1′-hydroxylation) does the source give for `O=C(c1cccc2ccccc12)c1cn(CCCCCF)c2ccccc12` [AM-2201] here?
**A.** 4 µM
